≈ marks a conversion by molar mass, not a printed value. Read-outs that look alike come from different tables or passages of the source.
Assays:
[1] = tested on: Pr. vulgaris; test: MIC, antibiotic dilution technique (agar); assay type: cell-based; settings: Proteus vulgaris; Table 1, Pr. vulgaris
From the text: (§1) Bacteria. The organisms, preponderantly of recent clinical origin, were obtained from numerous sources of broad geographical distribution. Obligate anaerobes were maintained in Egg Meat Medium (Difco); Mycobacterium was stored on Lowenstein Medium (Jensen Modification; Difco). The techniques of storing all other organisms have been described previously [Leitner et al., BL-S640, A Cephalosporin with a Broad Spectrum of Antibacterial Activity: Properties in vitro, Antimicrob. Agents Chemother., 7, 298-305 (1975)].
(§2) Antibiotic spectrum. The growth-inhibitory activity of the compounds was determined by the antibiotic dilution technique. Procedures were as follows:
(§3) Aerobic organisms (excluding Mycobacterium). Except for Haemophilus and Neisseria, the assay was performed in Mueller-Hinton Medium (Difco). For fastidious organisms, i.e., Streptococcus, Listeria, Pasteurella, Bordetella and Vibrio, the medium was supplemented with 4% defibrinated sheep blood. The antibiotic susceptibility of Haemophilus and Neisseria was determined in GC Medium Base (BBL) supplemented with 1% Hemoglobin (BBL) and 1% Isovitalex (BBL).
(§4) Overnight broth cultures of an exponentially growing culture (Neisseria) served as the source of inoculum. A volume of approximately 0.003 ml. of the undiluted or diluted culture was applied to the surface of the antibiotic-containing agar plates with the inoculator of Steers et al., An Inocula Replicating Apparatus for Routine Testing of Bacterial Susceptibility to Antibiotics, Antibiot. Chemother., 9, 307-311, (1959). Cultures of Neisseria, Streptococcus pneumoniae, S. viridans and S. pyogenes were used without dilution; those of all other organisms were diluted 100-fold. The inoculum contained about 10^3 viable cells for Neisseria, 10^5 for S. pneumoniae and S. pyogenes, 10^6 for S. viridans and 10^4 for all other species.

[2] = tested on: S. aureus Meth-Res.; test: MIC, antibiotic dilution technique (agar); assay type: cell-based; settings: Staphylococcus aureus; Table 1, S. aureus Meth-Res.
From the text: as §1, §2, §3, §4

[3] = tested on: Pr. morganii; test: MIC, antibiotic dilution technique (agar); assay type: cell-based; settings: Morganella morganii
From the text: as §1, §2, §3, §4

[4] = tested on: S. aureus Pen-Res.; test: MIC, antibiotic dilution technique (agar); assay type: cell-based; settings: Staphylococcus aureus
From the text: as §1, §2, §3, §4

[5] = tested on: Pr. rettgeri; test: MIC, antibiotic dilution technique (agar); assay type: cell-based; settings: Providencia rettgeri; Table 1, Pr. rettgeri
From the text: as §1, §2, §3, §4

[6] = tested on: E. Coli; test: MIC, antibiotic dilution technique (agar); assay type: cell-based; settings: Escherichia coli, Table 1, E. Coli
From the text: as §1, §2, §3, §4

[7] = tested on: Ent. cloacae; test: MIC, antibiotic dilution technique (agar); assay type: cell-based; settings: Enterobacter cloacae, Table 1, Ent. cloacae, read-out: MIC
From the text: as §1, §2, §3, §4

[8] = tested on: S. aureus; test: MIC, antibiotic dilution technique (agar); assay type: cell-based; settings: Staphylococcus aureus
From the text: as §1, §2, §3, §4

[9] = tested on: K. pneumoniae; test: MIC, antibiotic dilution technique (agar); assay type: cell-based; settings: Klebsiella pneumoniae, Table 1, K. pneumoniae, read-out: MIC
From the text: as §1, §2, §3, §4

[10] = tested on: Ps. aeruginosa; test: MIC, antibiotic dilution technique (agar); assay type: cell-based; settings: Pseudomonas aeruginosa, Table 1, Ps. aeruginosa
From the text: as §1, §2, §3, §4

[11] = tested on: Pr. mirabilis; test: MIC, antibiotic dilution technique (agar); assay type: cell-based; settings: Proteus mirabilis; Table 1, Pr. mirabilis
From the text: as §1, §2, §3, §4

[12] = tested on: Str. faecalis; test: MIC, antibiotic dilution technique (agar); assay type: cell-based; settings: Enterococcus faecalis; Table 1, Str. faecalis
From the text: as §1, §2, §3, §4

[13] = tested on: Str. pneumoniae; test: MIC, antibiotic dilution technique (agar); assay type: cell-based; settings: Streptococcus pneumoniae; Table 1, Str. pneumoniae
From the text: as §1, §2, §3, §4

[14] = tested on: Ser. marcescens; test: MIC, antibiotic dilution technique (agar); assay type: cell-based; settings: Serratia marcescens; Table 1, Ser. marcescens
From the text: as §1, §2, §3, §4

[15] = tested on: p. vulgaris; test: MIC, antibiotic dilution technique (agar), Table 4; assay type: cell-based; settings: Proteus vulgaris; Table 4, 2 strains, geometric mean where applicable
From the text: as §1, §2, §3, §4

[16] = tested on: S. pneumoniae; test: MIC, antibiotic dilution technique (agar), Table 4; assay type: cell-based; settings: Streptococcus pneumoniae; Table 4, 7 strains, geometric mean where applicable
From the text: as §1, §2, §3, §4

[17] = tested on: S. aureus (lacking penase); test: MIC, antibiotic dilution technique (agar), Table 4; assay type: cell-based; settings: Staphylococcus aureus; Table 4, 6 strains, geometric mean where applicable
From the text: as §1, §2, §3, §4

[18] = tested on: P. rettgeri; test: MIC, antibiotic dilution technique (agar), Table 4; assay type: cell-based; settings: Providencia rettgeri
From the text: as §1, §2, §3, §4

[19] = tested on: E. Coli; test: MIC, antibiotic dilution technique (agar), Table 4; assay type: cell-based; settings: Escherichia coli
From the text: as §1, §2, §3, §4

[20] = tested on: S. marcescens; test: MIC, antibiotic dilution technique (agar), Table 4; assay type: cell-based; settings: Serratia marcescens
From the text: as §1, §2, §3, §4

[21] = tested on: K. pneumoniae; test: MIC, antibiotic dilution technique (agar), Table 4; assay type: cell-based; settings: Klebsiella pneumoniae
From the text: as §1, §2, §3, §4

[22] = tested on: S. pyogenes; test: MIC, antibiotic dilution technique (agar), Table 4; assay type: cell-based; settings: Streptococcus pyogenes; Table 4, 6 strains, geometric mean where applicable
From the text: as §1, §2, §3, §4

[23] = tested on: S. viridans; test: MIC, antibiotic dilution technique (agar), Table 4; assay type: cell-based; settings: Streptococcus viridans
From the text: as §1, §2, §3, §4

[24] = tested on: Streptococcus sp. (β-hemolytic); test: MIC, antibiotic dilution technique (agar), Table 4; assay type: cell-based; settings: Table 4, 6 strains, geometric mean where applicable
From the text: as §1, §2, §3, §4

[25] = tested on: E. cloacae; test: MIC, antibiotic dilution technique (agar), Table 4; assay type: cell-based; settings: Enterobacter cloacae; Table 4, 2 strains, geometric mean where applicable
From the text: as §1, §2, §3, §4

[26] = tested on: P. mirabilis; test: MIC, antibiotic dilution technique (agar), Table 4; assay type: cell-based; settings: Proteus mirabilis
From the text: as §1, §2, §3, §4

[27] = tested on: S. faecalis; test: MIC, antibiotic dilution technique (agar), Table 4; assay type: cell-based; settings: Enterococcus faecalis; Table 4, 6 strains, geometric mean where applicable
From the text: as §1, §2, §3, §4

[28] = tested on: Str. pyogenes; test: MIC, antibiotic dilution technique (agar); assay type: cell-based, S. pyogenes; settings: Streptococcus pyogenes; Table 1, Str. pyogenes
From the text: as §1, §2, §3, §4

[29] = Mouse blood levels after oral administration (disc diffusion bioassay, Bacillus subtilis); settings: in vivo, 100 mg/kg

CC1(C)S[C@@H]2[C@H](NC(=O)[C@H](N)c3ccccc3)C(=O)N2[C@H]1C(=O)O [Ampicillin, ampicillin]
MIC [1]: 0.13 µg/mL (≈ 0.372 µM) | MIC [2]: 16 µg/mL (≈ 45.8 µM) | MIC [3]: 125 µg/mL (≈ 358 µM) | MIC [4]: 125 µg/mL (≈ 358 µM) | MIC [5]: 8 µg/mL (≈ 22.9 µM) | MIC ([6]; first line): 1 µg/mL (≈ 2.86 µM) | MIC ([6]; second line): 63 µg/mL (≈ 180 µM) | MIC ([7]; first line): 32 µg/mL (≈ 91.6 µM) | MIC ([7]; second line): 32 µg/mL (≈ 91.6 µM) | MIC ([8]; Table 1, S. aureus): 0.03 µg/mL (≈ 0.0859 µM) | MIC ([8]; Table 1, S. aureus + 50% serum): 0.06 µg/mL | MIC ([9]; first line): 63 µg/mL (≈ 180 µM) | MIC ([9]; second line): 32 µg/mL (≈ 91.6 µM) | MIC ([10]; first line, read-out: MIC): 63 µg/mL (≈ 180 µM) | MIC ([10]; second line): > 125 µg/mL | MIC [11]: 0.06 µg/mL (≈ 0.172 µM) | MIC [12]: 0.13 µg/mL (≈ 0.372 µM) | MIC [13]: 0.004 µg/mL (≈ 0.0114 µM) | MIC [14]: 16 µg/mL (≈ 45.8 µM) | MIC [15]: 0.35 µg/mL (≈ 1 µM) | MIC [16]: 0.02 µg/mL (≈ 0.0572 µM) | MIC [17]: 0.07 µg/mL (≈ 0.2 µM) | MIC ([18]; Table 4, P. retgeri, 2 strains (third line), geometric mean where applicable): 32 µg/mL (≈ 91.6 µM) | MIC ([18]; Table 4, P. rettgeri, 1 strain (first line)): 0.13 µg/mL (≈ 0.372 µM) | MIC ([18]; Table 4, P. rettgeri, 1 strain (second line)): 4 µg/mL (≈ 11.4 µM) | MIC ([19]; 1 strain (first line)): 0.5 µg/mL (≈ 1.43 µM) | MIC ([19]; 1 strain (fourth line)): > 125 µg/mL | MIC ([19]; 1 strain (third line)): 63 µg/mL (≈ 180 µM) | MIC ([19]; 3 strains (second line), geometric mean where applicable): 2.5 µg/mL (≈ 7.15 µM) | MIC ([20]; 1 strain (first line), read-out: MIC): 63 µg/mL (≈ 180 µM) | MIC ([20]; 1 strain (second line)): > 125 µg/mL | MIC [21]: > 125 µg/mL | MIC ([21]; Table 4, K. pneumoniae, 1 strain (first line), read-out: MIC): 32 µg/mL (≈ 91.6 µM) | MIC [22]: 0.016 µg/mL (≈ 0.0458 µM) | MIC ([23]; Table 4, S. viridans, 1 strain (second line)): 0.063 µg/mL (≈ 0.18 µM) | MIC ([23]; Table 4, S. viridans, 3 strains, geometric mean where applicable): 0.05 µg/mL (≈ 0.143 µM) | MIC ([23]; Table 4, s. viridans, 1 strain (third line)): 0.35 µg/mL (≈ 1 µM) | MIC [24]: 0.063 µg/mL (≈ 0.18 µM) | MIC [25]: 63 µg/mL (≈ 180 µM) | MIC [26]: > 125 µg/mL | MIC ([26]; Table 4, P. mirabilis, 4 strains, geometric mean where applicable, read-out: MIC): 2 µg/mL (≈ 5.72 µM) | MIC [27]: 1 µg/mL (≈ 2.86 µM) | MIC [28]: 0.008 µg/mL (≈ 0.0229 µM) | concentration at 0.25 h [29]: 3500 ng/mL | concentration at 0.5 h [29]: 6600 ng/mL | concentration at 1 h [29]: 6800 ng/mL | concentration at 1.5 h [29]: 4300 ng/mL | concentration at 2 h [29]: 2500 ng/mL | concentration at 3 h [29]: 1100 ng/mL
